Results: US20060040924A1, “Derivatives of aryl (or heteroaryl) azolylcarbinols for the treatment of renal colic” (Laboratorios Dr. Esteve S.A., priority 2004, published 2006)

Tested on: patients presenting with acute pain from suspected renal colic
Experiment: Clinical Study A: analgesic efficacy and safety of cizolirtine citrate versus sodium metamizol, single intravenous dose
Assay type: in vivo, human
Settings: for proportion of patients showing complete pain relief / proportion of patients showing satisfactory pain relief (decrease of pain intensity ≧50%): VAS at t+30 min; for Pain in the VAS at t + 30 min (LSM [SEM]), primary efficacy endpoint: per protocol population, 100 mm VAS, 30 min after start of single iv infusion (350 mg cizolirtine citrate or 2,500 mg sodium metamizol), adjusted means; for number of adverse events: per treatment group (32 randomized each), vomits and one episode of fever, all mild or moderate, none serious
Procedure: Objectives: to compare the analgesic efficacy and safety of cizolirtine citrate, an inhibitor of the release of the substance P, versus sodium metamizol to treat acute pain. Method: sixty four patients presenting with acute pain from suspected renal colic were randomized to a single intravenous dose of either 350 mg of cizolirtine citrate or 2,500 mg of sodium metamizol. Pain was assessed throughout 6 hours by means of visual analogical (VAS) and categorical scales. Results: renal colic was confirmed in all patients randomized. After 30 minutes, pain adjusted mean scores (100 mm VAS) were (LSM±SEM) 39.203±4.4 mm and 30.155±4.2 mm. In the cizolirtine and metamizol groups, respectively (p=0.1203). […] However, efficacy was lower than that of the comparator, an established treatment.
Study population: Subjects of either sex aged between 18 and 65 years old suffering moderate to severe pain due to a suspected renal colic starting within previous 24 hour and having a urine dipstick test positive for haematuria. Since this was an exploratory pilot phase II study, a formal sample size calculation was not performed. Moreover, no previous information regarding a comparison between the effects of sodium metamizol and placebo as analgesics for the management of renal colic could be found. Therefore, a minimum effect size to establish a non-inferiority margin was not be established. Nevertheless, to detect a difference of at least 25 mm in pain intensity measured with the VAS assuming a common standard deviation of 36.1 by means of a one-sided t test, 26 patients per group were necessary. Considering a dropout rate of 20%, 64 patients were recruited in the study
Study treatments: Either one single 350 mg dose of cizolirtine citrate or one single 2,500 mg dose of sodium metamizol by slow intravenous infusion in 15 minutes in a double-blind and randomized fashion and in a 1:1 proportion. Rescue doses of butorphanol were given as needed but were not allowed during the first 30 minutes.
Measurements: Patients ranked their pain intensity on both a visual analogical scale (VAS) and a verbal categorical scale at baseline and 15, 30 and 45 minutes and 1, 2, 3, 4, […] after receiving the study drug. Vital signs were determined also at 15, 30 and 45 minutes and at 1 and 6 hours. Active questioning for adverse events since receiving study medication was done after 2 hours. Confirmatory diagnosis of an ureteral stone had to be established before the end of the study.
Primary endpoint: mean pain intensity as determined by the VAS 30 minutes after the start of study drug administration (t+30 min).
Statistics: Demographic and baseline continuous variables values were compared between treatment groups by means of a t test. Primary efficacy analyses were performed in the per protocol population. An analysis of covariance model with the factors treatment, centre and the treatment by centre interaction and considering the baseline value as a covariate was used or the comparison between the groups. In addition, the bilateral 95% confidence interval was calculated for the difference between treatments.
The proportions of patients with complete and satisfactory pain relief between treatments at t+30 min were compared between treatment groups by means of a chi-square test and also the bilateral 95% confidence intervals for the differences were calculated. The time-treatment variables were evaluated by means of the Kaplan-Meier method and the log-rank test was used to compare the treatment groups, pain intensity differences as determined by means of the visual analogical scale (APID), pain intensity differences as determined by means of the categorical scale (CPID) and relief of pain as determined by means of the categorical scale on pain relief (PAR) from baseline to t+30 min were compared between treatment groups by means of a repeated measures analysis of variance. […]

[1] = 30 min after start of single iv dose, versus baseline

SMILES	mean decrease in pain intensity (VAS) at t+30 min [1] [%]	proportion of patients showing complete pain relief [%]	proportion of patients showing satisfactory pain relief (decrease of pain intensity ≧50%) [%]	onset of analgesia relative to comparator (time-curves APID, CPID, PAR) (difference disappears after 2 hours)	Pain in the VAS at t + 30 min (LSM [SEM]), primary efficacy endpoint [mm]	number of adverse events	mean reductions in pain intensity determined by the VAS at t+30 min [1] [mm]	Pain in the VAS at t + 30 min (LSM [SEM]), primary efficacy endpoint (listed as metamizol) [mm]
CN(C)CCO[C@H](c1ccccc1)c1ccnn1C.O=C(O)CC(O)(CC(=O)O)C(=O)O (racemic) [Cizolirtine, (±)-5-{α-[2-(dimethylamino)ethoxy]benzyl}-1-methyl-1H-pirazole citrate]	57.2	48.4	64.5	deferred with respect to that provided by metamizol	39.203±4.4	3	–	–
Cc1c(N(C)CS(=O)(=O)[O-])c(=O)n(-c2ccccc2)n1C.[Na+] [Metamizol, sodium metamizol]	69.1	56.3	75.0	–	30.155	3	57.1	30.155±4.2
